Measured values from article PMC3126777, “Selective anticancer activity of a hexapeptide with sequence homology to a non-kinase domain of Cyclin Dependent Kinase 4” (Molecular Cancer, 2011).
Entries after “also recorded” stand apart in the source; their conditions may differ.

Assays:
[1] = test system: normal diploid human fibroblasts; experiment: In-vitro morphological cell viability screen, normal fibroblasts; format: cell-based; conditions: dose 200 μM
Description: A broad search for possible biological activity associated with the [sequence] peptide sequence was initially instituted by screening human bladder cancer cell lines for potential in-vitro morphological changes, compared to control cultures of normal diploid human fibroblasts at 4-8 passages from primary culture as controls. […] The peptides were dissolved, over a range of concentrations, in Ham's F12 + 10% FCS and introduced in 100 μL quantities to microwells containing 500 RT112 bladder cancer cells, or normal diploid human fibroblasts, in 200 μL of Ham's F12 + 10% FCS plated 24 hours earlier on 96 well plates.

[2] = test system: RT112 human bladder cancer cells; experiment: Time lapse photomicrography, RT112; format: cell-based; conditions: RT112, 200 μM THR53, Ham's F12 + 10% FCS
Description: (§1) Progressive morphological changes in dying H460 cells exposed to 200 μM THR53 [additional file 1], contrasted with progressive cell division in untreated H460 cells [additional file 2] are shown as videos. Immortalised MRC5-hTERT fibroblasts, were unaffected by exposure to 200 μM THR53 except for some generalised slowing of growth (Figure 5A), [additional file 3] as compared to control, untreated, MRC5-hTERT cells [additional file 4]. RT112 cells were more sensitive to THR53 than H460 cells and died within 30 - 40 hours as compared to 96 hours for H460 and the majority of other human cancer cell lines investigated.
(§2) Figure 5 Time Lapse Photomicrography of MRC5-hTERT, RT112 human bladder cancer and […] human non-small cell lung cancer following exposure toTHR53. Cells were incubated in Ham's F12 + 10% FCS (control medium) or medium + 200 μM THR53. Morphological changes of vacuolation + cellar swelling are seen in RT112 at 33 hours after exposure to THR53 and in H460 at 90 hours after exposure to THR53. There was no evidence of cell blebbing or fragmentation. (see also videos)

[3] = test system: H460 human non-small cell lung cancer cells; experiment: Time lapse photomicrography, H460; format: cell-based; conditions: H460, 200 μM THR53, Ham's F12 + 10% FCS
Description: as §1, §2

[4] = test system: MRC5-hTERT immortalised fibroblasts; experiment: Necrosis assay by Trypan Blue exclusion, MRC5-hTERT; format: cell-based
Description: Necrosis Assay Cells were plated in triplicate in 96 well plates at concentrations of 500 cells per well (HT1299, MCF-7) or 1000 cells per well (H460, MRC5-hTERT) in the presence or absence of the relevant compound and assessed by Trypan Blue exclusion At 2,3,4 and 7 days after plating. To assay, cells were trypsinised off, stained with trypan blue in isotonic medium and live and dead cells separately counted visually by haemocytomter. Each data point is the mean of results from triplicate wells (Solid lines - Live cells, Broken lines - Dead Cells; Blue - Control, Red - THR53 200 μM).

[5] = test system: NCI-H460 cells; experiment: Cellular ATP levels (CellTiter-Glo assay); format: cell-based, human; conditions: H460, 100 μM THR53, between 48 and 96 hours, CellTiter-Glo luminescence
Description: Cellular ATP levels (CellTiter-Glo assay) Cells were grown, seeded and compound-treated as for the alamar Blue assay. A volume of the CellTiter-Glo reagent equal to the volume of cell culture media was added to the cells. Plates were mixed for 2 min on an orbital shaker to induce cell lysis before the plate was incubated at room temperature for 10 min to stabilize the signal. The luminescent signal was measured and the media only background was subtracted.

[6] = test system: NCI-H460 cells; experiment: Total cellular protein (sulphorhodamine B assay); format: cell-based, human; conditions: H460, 100 μM THR53, up to 96 hours, sulphorhodamine B
Description: Control medium/alamar blue were removed and 200 μl PBS was added. […] Wells were rinsed with water and allowed to air dry. Cells were then stained in 0.4% SRB solution, before rinsing with 1% acetic acid and air drying. Incorporated dye was solubilised in 10 mM Tris and absorbance measured at 565 nm and 690 nm. Absorbance measurements at 690 nm were subtracted from the 565 nm readings to correct for multi-well plate absorbance.

[7] = test system: H460 cells; experiment: Autophagy Assay (Cyto-ID Green, flow cytometry); format: cell-based, human; conditions: H460, 100 μM, 72 h and 96 h
Description: Autophagy Assay was performed as recommended by the manufacturers' instructions (Enzo ENZ-51031-[…]). Briefly, H460 cells were seeded into 6 well plates at 2.5 × 10^5 and 1 × 10^5 cells/well. Immediately after cell plating, chloroquine or […] were added at the concentrations indicated. Following compound treatment, cells were washed once in PBS and resuspended in x1 Cyto-ID Green autophagy detection reagent and incubated at room temperature for 30 min. Immediately prior to analysis, propidium iodide (PI) solution was added to the cell suspension at a final concentration of 2.5 μg/ml, to assess cell death. Analysis was carried out using FACSCalibur (BD Biosciences). Cyto-ID Green autophagy reagent was measured in the FL-1 channel (530/30 nm bandpass filters with excitation at 488 nm) and PI measured in the FL-3 channel (670 nm longpass filters with excitation at 488 nm).

[8] = test system: Cdk1 and Cdk4 expression in H460 human non-small cell lung cancer cells; experiment: Western blotting of Cdk1 and Cdk4 expression, H460; format: cell-based; conditions: H460, 200 μM, 24 hours, Western blot
Text: This co-expression is unaffected by cytocidal doses of cisdiamminedichloroplatinum but can accompany spontaneous cancer cell death. Whether or not Cdk1/Cdk4 co-expression remained constant in cancer cells dying as a result of exposure to PRGPRP was thus examined by Western blotting.
All cell lines were from certified sources.

[9] = Preliminary pharmacokinetic experiments; format: in vivo; conditions: maximum tolerated dose, species not given

With “Cyc-[FPPRGPRPVKLALKLALK] (head to tail) [THR53, cyclic amphiphilic analogue, Cyc-[…]]” the “Cell Viability Normal Diploid Fibroblasts” value [1] was “+ + +”, the “time at which morphological changes of vacuolation + cellular swelling are seen” value [2] was 33 hours and the “time to cell death” value [2] was 30 to 40 h. The “time at which morphological changes of vacuolation + cellular swelling are seen” value [3] was 90 hours, the “time to cell death” value [3] was 96 h and the “cytotoxicity to MRC5-hTERT immortalised fibroblasts” value ([4]; 200 μM (Figures 4A and 5A)) was “not cytotoxic”. The “necrosis / viability by trypan blue exclusion” value ([4]; MRC5-hTERT, 200 μM, 2, 3, 4 and 7 days after plating, triplicate wells) was “unaffected; also recorded: not in MRC5-h-TERT immortalised fibroblasts”, the ATP levels [5] was “progressive diminution” and the total cellular protein [6] was “without change”. The “autophagy, Cyto-ID Green mean fluorescent intensity compared with control” value [7] was “no difference”, the Cdk4 expression [8] was “complete disappearance” and the plasma levels [9] was “low plasma levels which were not persistent”.
